Assay results reported in patent US20120264685A1 (priority 2009, published 2012).
Where a SMILES comes first, the peptide text is derived from it. [ ]: non-standard residue; d: D form. ξ: configuration not given here. ξαMeBip(2'-Et,4'-OMe) = CCc1cc(OC)ccc1-c1ccc(CC(C)(N)C(=O)O)cc1; ξBip(2'-Et-4'-OMe) = CCc1cc(OC)ccc1-c1ccc(CC(N)C(=O)O)cc1; ξαMePhe(2,6-F2) = CC(N)(Cc1c(F)cccc1F)C(=O)O; ξαMe(hhPhe) = CC(N)(CCCc1ccccc1)C(=O)O; ξαMePhe(2-F) = CC(N)(Cc1ccccc1F)C(=O)O; ξhhPhe = NC(CCCc1ccccc1)C(=O)O; ξαMeD = CC(N)(CC(=O)O)C(=O)O; ξαMeP = CC1(C(=O)O)CCCN1; Ac5c = NC1(C(=O)O)CCCC1; ξαMeS = CC(N)(CO)C(=O)O; Aib = CC(C)(N)C(=O)O

Tested on: RIN5F (Rat Insulinoma) cells
Assay: In vitro glucose-dependent insulin secretion (RIN5F cell assay)
Format: cell-based
Details: 16.7-mM glucose load, n = 3, mean ± S.D.
Experimental: RIN5F (Rat Insulinoma) cells were cultured in RPMI 1640 medium supplemented with sodium pyruvate (1 mM) HEPES and Glucose (4.5 g/L) in a humidified incubator (5% CO2), at 37° C. After trypsinization, RIN5F cells were seeded at a concentration of 0.2×10^6 cells per well, in 12 well plates. The cells were grown overnight to 80% confluence and insulin secretion experiments were performed as follows (Montrose-Rafizadeh C., et al., Mol. Cell. Endo. 1997, 130, 109.; Wang, X., et al., Endocrinology 2001, 5, 1820).
The cells were washed once with PBS solution followed by 40 min. incubation in fresh Krebs-Ringer Balanced Buffer containing NaCl (115 mmol/L), KCl (4.7 mmol/L), CaCl2 (1.28 mmol/L), MgSO4.7H2O (1.2 mmol/L), KH2PO4 (1.2 mmol/L), NaHCO3 (10 mmol/L) and HEPES (25 mmol/L), containing Glucose (1.1 mM) and B.S.A (0.5%), pH 7.4. The buffer was replaced after 40 min. and the cells were incubated (37° C.) with the test peptidomimetics, at different concentration, for 30 min., both in the presence (16.7 mM) and absence (0 mM) of glucose load. The supernatant was collected and the insulin amount was measured by ultra sensitive Rat insulin ELISA kit (Crystal Chem, IL). The protein was estimated in the supernatant using Bicinchoninic Acid kit, according to the manufacturer's protocol (Sigma Aldrich, MO). The total insulin content obtained in Pico-gram (pg) was divided with the total protein (μg) in order to normalize for differences in cell density between wells.

Row | SMILES | Insulin secretion (0.1 nM test compd.) | Insulin secretion (1 nM test compd.) | Insulin secretion (10 nM test compd.)
1 | CCc1cc(OC)ccc1-c1ccc(CC(C)(NC(=O)C(C)(CC(=O)O)NC(=O)[C@H](CO)NC(=O)[C@@H](NC(=O)C(C)(Cc2ccccc2F)NC(=O)[C@@H](NC(=O)CNC(=O)[C@H](CCC(=O)O)NC(=O)C(C)(C)NC(=O)[C@H](Cc2c[nH]cn2)NC(=O)[C@@H](N)C(C)C)[C@@H](C)O)[C@@H](C)O)C(=O)NC(CCCc2ccccc2)C(N)=O)cc1 (stereo partly drawn) [compound 71] (H-VH[Aib]EGT[ξαMePhe(2-F)]TS[ξαMeD][ξαMeBip(2'-Et,4'-OMe)][ξhhPhe]-NH2) | 15.6 ± 0.30 pg/µg/h | 21.8 ± 0.11 pg/µg/h | 35.6 ± 0.20 pg/µg/h
2 | CCc1cc(OC)ccc1-c1ccc(CC(C)(NC(=O)C(C)(CC(=O)O)NC(=O)[C@H](CO)NC(=O)[C@@H](NC(=O)C(C)(Cc2c(F)cccc2F)NC(=O)[C@@H](NC(=O)CNC(=O)[C@H](CCC(=O)O)NC(=O)[C@H](C)NC(=O)[C@H](Cc2c[nH]cn2)NC(=O)[C@@H](N)C(C)C)[C@@H](C)O)[C@@H](C)O)C(=O)NC(CCCc2ccccc2)C(N)=O)cc1 (stereo partly drawn) [compound 78] (H-VHAEGT[ξαMePhe(2,6-F2)]TS[ξαMeD][ξαMeBip(2'-Et,4'-OMe)][ξhhPhe]-NH2) | 16.3 ± 0.15 pg/µg/h | 22.4 ± 0.21 pg/µg/h | 36.2 ± 0.11 pg/µg/h
3 | CCc1cc(OC)ccc1-c1ccc(CC(NC(=O)[C@H](CC(=O)O)NC(=O)[C@H](CO)NC(=O)[C@@H](NC(=O)[C@H](Cc2ccccc2)NC(=O)[C@@H](NC(=O)CNC(=O)[C@H](CCC(N)=O)NC(=O)C2(NC(=O)[C@H](Cc3c[nH]cn3)NC(=O)[C@@H](N)C(C)C)CCCC2)[C@@H](C)O)[C@@H](C)O)C(=O)NC(C)(CCCc2ccccc2)C(N)=O)cc1 (stereo partly drawn) [compound 85] (H-VH[Ac5c]QGTFTSD[ξBip(2'-Et-4'-OMe)][ξαMe(hhPhe)]-NH2) | 12.1 ± 0.52 pg/µg/h | 14.1 ± 0.16 pg/µg/h | 28.0 ± 0.36 pg/µg/h
4 | CCc1cc(OC)ccc1-c1ccc(CC(NC(=O)[C@H](CC(=O)O)NC(=O)[C@H](CO)NC(=O)[C@@H](NC(=O)C(C)(Cc2c(F)cccc2F)NC(=O)[C@@H](NC(=O)CNC(=O)[C@H](CCC(=O)O)NC(=O)[C@H](CO)NC(=O)[C@H](Cc2c[nH]cn2)NC(=O)[C@@H](N)C(C)C)[C@@H](C)O)[C@@H](C)O)C(=O)NC(C)(CCCc2ccccc2)C(N)=O)cc1 (stereo partly drawn) [compound 103] (H-VHSEGT[ξαMePhe(2,6-F2)]TSD[ξBip(2'-Et-4'-OMe)][ξαMe(hhPhe)]-NH2) | 12.3 ± 0.33 pg/µg/h | 14.1 ± 0.36 pg/µg/h | 28.0 ± 0.16 pg/µg/h
5 | CCc1cc(OC)ccc1-c1ccc(CC(NC(=O)C(C)(CC(=O)O)NC(=O)C(C)(CO)NC(=O)[C@@H](NC(=O)C(C)(Cc2ccccc2F)NC(=O)[C@@H](NC(=O)CNC(=O)[C@H](CCC(=O)O)NC(=O)[C@H](CO)NC(=O)[C@H](Cc2c[nH]cn2)NC(=O)[C@@H](N)C(C)C)[C@@H](C)O)[C@@H](C)O)C(=O)NC(C)(CCCc2ccccc2)C(N)=O)cc1 (stereo partly drawn) [compound 119] (H-VHSEGT[ξαMePhe(2-F)]T[ξαMeS][ξαMeD][ξBip(2'-Et-4'-OMe)][ξαMe(hhPhe)]-NH2) | 12.4 ± 0.22 pg/µg/h | 15.2 ± 0.32 pg/µg/h | 29.6 ± 0.50 pg/µg/h
6 | CCc1cc(OC)ccc1-c1ccc(CC(NC(=O)C(C)(CC(=O)O)NC(=O)C(C)(CO)NC(=O)[C@@H](NC(=O)C(C)(Cc2c(F)cccc2F)NC(=O)[C@@H](NC(=O)CNC(=O)[C@H](CCC(N)=O)NC(=O)C2(C)CCCN2C(=O)[C@H](Cc2c[nH]cn2)NC(=O)[C@@H](N)C(C)C)[C@@H](C)O)[C@@H](C)O)C(=O)NC(C)(CCCc2ccccc2)C(N)=O)cc1 (stereo partly drawn) [compound 126] (H-VH[ξαMeP]QGT[ξαMePhe(2,6-F2)]T[ξαMeS][ξαMeD][ξBip(2'-Et-4'-OMe)][ξαMe(hhPhe)]-NH2) | 16.6 ± 0.41 pg/µg/h | 22.9 ± 0.32 pg/µg/h | 36.6 ± 0.19 pg/µg/h
7 | CCc1cc(OC)ccc1-c1ccc(CC(NC(=O)C(C)(CC(=O)O)NC(=O)C(C)(CO)NC(=O)[C@@H](NC(=O)C(C)(Cc2c(F)cccc2F)NC(=O)[C@@H](NC(=O)CNC(=O)[C@H](CCC(=O)O)NC(=O)C2(C)CCCN2C(=O)[C@H](Cc2c[nH]cn2)NC(=O)[C@@H](N)C(C)C)[C@@H](C)O)[C@@H](C)O)C(=O)NC(C)(CCCc2ccccc2)C(N)=O)cc1 (stereo partly drawn) [compound 130] (H-VH[ξαMeP]EGT[ξαMePhe(2,6-F2)]T[ξαMeS][ξαMeD][ξBip(2'-Et-4'-OMe)][ξαMe(hhPhe)]-NH2) | 15.6 ± 0.33 pg/µg/h | 21.8 ± 0.16 pg/µg/h | 35.6 ± 0.26 pg/µg/h
8 | CCc1cc(OC)ccc1-c1ccc(CC(C)(NC(=O)[C@H](CC(=O)O)NC(=O)C(C)(CO)NC(=O)[C@@H](NC(=O)[C@H](Cc2ccccc2)NC(=O)[C@@H](NC(=O)CNC(=O)[C@H](CCC(N)=O)NC(=O)C2(C)CCCN2C(=O)[C@H](Cc2c[nH]cn2)NC(=O)[C@@H](N)C(C)C)[C@@H](C)O)[C@@H](C)O)C(=O)NC(C)(CCCc2ccccc2)C(N)=O)cc1 (stereo partly drawn) [compound 160] (H-VH[ξαMeP]QGTFT[ξαMeS]D[ξαMeBip(2'-Et,4'-OMe)][ξαMe(hhPhe)]-NH2) | 16.8 ± 0.20 pg/µg/h | 22.7 ± 0.29 pg/µg/h | 36.6 ± 0.31 pg/µg/h
9 | CCc1cc(OC)ccc1-c1ccc(CC(C)(NC(=O)[C@H](CC(=O)O)NC(=O)C(C)(CO)NC(=O)[C@@H](NC(=O)C(C)(Cc2ccccc2F)NC(=O)[C@@H](NC(=O)CNC(=O)[C@H](CCC(N)=O)NC(=O)C2(C)CCCN2C(=O)[C@H](Cc2c[nH]cn2)NC(=O)[C@@H](N)C(C)C)[C@@H](C)O)[C@@H](C)O)C(=O)NC(C)(CCCc2ccccc2)C(N)=O)cc1 (stereo partly drawn) [compound 168] (H-VH[ξαMeP]QGT[ξαMePhe(2-F)]T[ξαMeS]D[ξαMeBip(2'-Et,4'-OMe)][ξαMe(hhPhe)]-NH2) | 11.9 ± 0.17 pg/µg/h | 14.2 ± 0.13 pg/µg/h | 27.6 ± 0.16 pg/µg/h
10 | CCc1cc(OC)ccc1-c1ccc(CC(C)(NC(=O)[C@H](CC(=O)O)NC(=O)C(C)(CO)NC(=O)[C@@H](NC(=O)C(C)(Cc2c(F)cccc2F)NC(=O)[C@@H](NC(=O)CNC(=O)[C@H](CCC(N)=O)NC(=O)C(C)(C)NC(=O)[C@H](Cc2c[nH]cn2)NC(=O)[C@@H](N)C(C)C)[C@@H](C)O)[C@@H](C)O)C(=O)NC(C)(CCCc2ccccc2)C(N)=O)cc1 (stereo partly drawn) [compound 175] (H-VH[Aib]QGT[ξαMePhe(2,6-F2)]T[ξαMeS]D[ξαMeBip(2'-Et,4'-OMe)][ξαMe(hhPhe)]-NH2) | 12.4 ± 0.22 pg/µg/h | 15.2 ± 0.32 pg/µg/h | 29.6 ± 0.50 pg/µg/h
11 | CCc1cc(OC)ccc1-c1ccc(CC(C)(NC(=O)C(C)(CC(=O)O)NC(=O)[C@H](CO)NC(=O)[C@@H](NC(=O)[C@H](Cc2ccccc2)NC(=O)[C@@H](NC(=O)CNC(=O)[C@H](CCC(N)=O)NC(=O)[C@H](C)NC(=O)[C@H](Cc2c[nH]cn2)NC(=O)[C@@H](N)C(C)C)[C@@H](C)O)[C@@H](C)O)C(=O)NC(C)(CCCc2ccccc2)C(N)=O)cc1 (stereo partly drawn) [compound 182] (H-VHAQGTFTS[ξαMeD][ξαMeBip(2'-Et,4'-OMe)][ξαMe(hhPhe)]-NH2) | 13.1 ± 0.11 pg/µg/h | 14.9 ± 0.17 pg/µg/h | 28.8 ± 0.44 pg/µg/h
12 | CCc1cc(OC)ccc1-c1ccc(CC(C)(NC(=O)[C@H](CC(=O)O)NC(=O)[C@H](CO)NC(=O)[C@@H](NC(=O)[C@H](Cc2ccccc2)NC(=O)[C@@H](NC(=O)CNC(=O)[C@H](CCC(=O)O)NC(=O)[C@H](C)NC(=O)[C@H](Cc2c[nH]cn2)NC(=O)[C@@H](NC(=O)[C@@H](N)C(C)C)C(C)C)[C@@H](C)O)[C@@H](C)O)C(=O)NC(CCCc2ccccc2)C(N)=O)cc1 (stereo partly drawn) [compound 210] (H-VVHAEGTFTSD[ξαMeBip(2'-Et,4'-OMe)][ξhhPhe]-NH2) | 16.3 ± 0.15 pg/µg/h | 22.4 ± 0.21 pg/µg/h | 36.2 ± 0.11 pg/µg/h
